Measured values taken from patent US7544698B2, “Indoles and benzoimidazoles as modulators of the histamine H4 receptor” (Janssen Pharmaceutica, N.V., priority 2006, dated 2009).
Counter-ions that a name gives are not always drawn.

The compounds below were run against T1, human histamine H4 receptor (Homo sapiens, UniProt Q9H3N8) (assay: Binding Assay on Recombinant Human Histamine H4 Receptor (3H-histamine competition, membranes of transfected SK-N-MC or COS7 cells)). Conditions: competition with 3H-histamine (5 nM ligand, KD 5 nM), Cheng-Prusoff; mean of results; > = solubility limit or highest concentration tested.
T1 construct: expressed in transfected cells; host or cells: SK-N-MC cells or COS7 cells, transiently transfected with pH4R; cell membranes
Protocol: Binding Assay on Recombinant Human Histamine H4 Receptor
SK-N-MC cells or COS7 cells were transiently transfected with pH4R and grown in 150 cm^2 tissue culture dishes. Cells were washed with saline solution, scraped with a cell scraper and collected by centrifugation (1000 rpm, 5 min). Cell membranes were prepared by homogenization of the cell pellet in 20 mM Tris-HCl with a polytron tissue homogenizer for 10 sec at high speed. Homogenate was centrifuged at 1000 rpm for 5 min at 4° C. The supernatant was then collected and centrifuged at 20,000×g for 25 min at 4° C. The final pellet was resuspended in 50 mM Tris-HCl. […] Incubation occurred at room temperature for 45 min. Membranes were harvested by rapid filtration over Whatman GF/C filters and washed 4 times with ice-cold 50 mM Tris HCl. Filters were then dried, mixed with scintillant and counted for radioactivity. SK-N-MC or COS7 cells expressing human histamine H4 receptor were used to measure the affinity of binding of other compounds and their ability to displace ^3H-ligand binding by incubating the above-described reaction in the presence of various concentrations of inhibitor or compound to be tested.

T1 sequence (Q9H3N8 whole entry): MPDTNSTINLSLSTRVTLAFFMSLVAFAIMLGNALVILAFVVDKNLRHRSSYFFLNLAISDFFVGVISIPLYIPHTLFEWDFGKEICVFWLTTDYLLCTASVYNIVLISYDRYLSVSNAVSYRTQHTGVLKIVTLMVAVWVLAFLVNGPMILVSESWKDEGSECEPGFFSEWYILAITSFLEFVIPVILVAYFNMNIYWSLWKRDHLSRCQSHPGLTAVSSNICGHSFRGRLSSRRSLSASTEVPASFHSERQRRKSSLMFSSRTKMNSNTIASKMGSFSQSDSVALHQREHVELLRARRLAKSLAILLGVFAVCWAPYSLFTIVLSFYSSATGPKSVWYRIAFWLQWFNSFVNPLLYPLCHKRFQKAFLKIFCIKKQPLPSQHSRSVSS

| SMILES | Ki |
| --- | --- |
| O=C(c1cc2ccccc2[nH]1)N1C[C@H]2CCCN[C@H]2C1 (relative stereo) [Example 5, cis-(1H-Indol-2-yl)-(octahydro-pyrrolo[3,4-b]pyridin-6-yl)-methanone trifluoroacetic acid salt] | 40 nM |
| O=C(c1nc2cc(Cl)ccc2[nH]1)N1C[C@H]2CCCN[C@H]2C1 (relative stereo) [Example 7, cis-(5-Chloro-1H-benzoimidazol-2-yl)-(octahydro-pyrrolo[3,4-b]pyridin-6-yl)-methanone] | 20 nM |
| O=C(c1cc2cc(Cl)ccc2[nH]1)N1C[C@H]2CCCN[C@H]2C1 (relative stereo) [Example 10, cis-(5-Chloro-1H-indol-2-yl)-(octahydro-pyrrolo[3,4-b]pyridin-6-yl)-methanone] | 8 nM |
| O=C(c1cc2cc(F)ccc2[nH]1)N1C[C@H]2CCCN[C@H]2C1 (relative stereo) [Example 13, cis-(5-Fluoro-1H-indol-2-yl)-(octahydro-pyrrolo[3,4-b]pyridin-6-yl)-methanone hydrochloride salt] | 28 nM |
| O=C(c1cc2cccc([N+](=O)[O-])c2[nH]1)N1C[C@H]2CCCN[C@H]2C1 (relative stereo) [Example 14, cis-(7-Nitro-1H-indol-2-yl)-(octahydro-pyrrolo[3,4-b]pyridin-6-yl)-methanone hydrochloride salt] | > 10000 nM |
| O=C(c1cc2c(F)cc(F)cc2[nH]1)N1C[C@H]2CCCN[C@H]2C1 (relative stereo) [Example 15, cis-(4,6-Difluoro-1H-indol-2-yl)-(octahydro-pyrrolo[3,4-b]pyridin-6-yl)-methanone hydrochloride salt] | 220 nM |
| CN1CCC[C@@H]2CN(C(=O)c3cc4ccccc4[nH]3)C[C@@H]21 (relative stereo) [Example 27, cis-(1H-Indol-2-yl)-(1-methyl-octahydro-pyrrolo[3,4-b]pyridin-6-yl)-methanone] | 560 nM |
| CN1CCC[C@@H]2CN(C(=O)c3cc4cc(Cl)ccc4[nH]3)C[C@@H]21 (relative stereo) [Example 28, cis-(5-Chloro-1H-indol-2-yl)-(1-methyl-octahydro-pyrrolo[3,4-b]pyridin-6-yl)-methanone] | 240 nM |
| Cc1ccc2[nH]c(C(=O)N3C[C@H]4CCCN[C@H]4C3)cc2c1 (relative stereo) [Example 29, cis-(5-Methyl-1H-indol-2-yl)-(octahydro-pyrrolo[3,4-b]pyridin-6-yl)-methanone hydrochloride salt] | 41 nM |
| O=C(c1cc2ccccc2[nH]1)N1C[C@@H]2C[C@H]1CN2 [Example 1, (S,S)-(2,5-Diaza-bicyclo[2.2.1]hept-2-yl)-(1H-indol-2-yl)-methanone hydrochloride salt] | 1110 nM |
| CN1C[C@@H]2C[C@H]1CN2C(=O)c1cc2ccccc2[nH]1 [Example 2, (S,S)-(1H-Indol-2-yl)-(5-methyl-2,5-diaza-bicyclo[2.2.1]hept-2-yl)-methanone] | 3200 nM |
| CNC1CCN(C(=O)c2cc3ccccc3[nH]2)C1 (centres unmarked) [Example 3, (1H-Indol-2-yl)-(3-methylamino-pyrrolidin-1-yl)-methanone trifluoroacetic acid salt] | 430 nM |
| CN[C@@H]1CCN(C(=O)c2cc3ccccc3[nH]2)C1 [Example 4, (R)-(1H-Indol-2-yl)-(3-methylamino-pyrrolidin-1-yl)-methanone hydrochloride salt] | 160 nM |
| O=C(c1cc2ccccc2[nH]1)N1C[C@@H]2CCCN[C@@H]2C1 [Example 6, (S,S)-(1H-Indol-2-yl)-(octahydro-pyrrolo[3,4-b]pyridin-6-yl)-methanone trifluoroacetic acid salt] | > 10000 nM |
| CN[C@@H]1CCN(C(=O)c2cc3cc(Cl)ccc3[nH]2)C1 [Example 8, (R)-(5-Chloro-1H-indol-2-yl)-(3-methylamino-pyrrolidin-1-yl)-methanone] | 53 nM |
| CN[C@H]1CCN(C(=O)c2cc3cc(Cl)ccc3[nH]2)C1 [Example 9, (S)-(5-Chloro-1H-indol-2-yl)-(3-methylamino-pyrrolidin-1-yl)-methanone] | 540 nM |

| SMILES | Ki |
| --- | --- |
| O=C(c1cc2cc(Cl)ccc2[nH]1)N1C[C@H]2CCCN[C@H]2C1 [Example 11, (R,R)-(5-Chloro-1H-indol-2-yl)-(octahydro-pyrrolo[3,4-b]pyridin-6-yl)-methanone hydrochloride salt] | 27 nM |
| O=C(c1cc2cc(Cl)ccc2[nH]1)N1C[C@@H]2CCCN[C@@H]2C1 [Example 12, (S,S)-(5-Chloro-1H-indol-2-yl)-(octahydro-pyrrolo[3,4-b]pyridin-6-yl)-methanone hydrochloride salt] | > 10000 nM |
| O=C(c1cc2cc(Cl)ccc2[nH]1)N1C[C@@H]2CCCN[C@@H]2C1 [Example 12A, (S,S)-(5-Chloro-1H-indol-2-yl)-(octahydro-pyrrolo[3,4-b]pyridin-6-yl)-methanone] | 180 nM |
| CN[C@H]1CCN(C(=O)c2cc3cc(F)ccc3[nH]2)C1 [Example 16, (S)-(5-Fluoro-1H-indol-2-yl)-(3-methylamino-pyrrolidin-1-yl)-methanone] | 680 nM |
| CN[C@@H]1CCN(C(=O)c2cc3cc(F)ccc3[nH]2)C1 [Example 17, (R)-(5-Fluoro-1H-indol-2-yl)-(3-methylamino-pyrrolidin-1-yl)-methanone] | 38 nM |
| CN[C@H]1CCN(C(=O)c2cc3cccc(C)c3[nH]2)C1 [Example 18, (S)-(3-Methylamino-pyrrolidin-1-yl)-(7-methyl-1H-indol-2-yl)-methanone] | > 10000 nM |
| CN[C@@H]1CCN(C(=O)c2cc3cccc(C)c3[nH]2)C1 [Example 19, (R)-(3-Methylamino-pyrrolidin-1-yl)-(7-methyl-1H-indol-2-yl)-methanone] | 150 nM |
| CN[C@H]1CCN(C(=O)c2cc3cc(C)ccc3[nH]2)C1 [Example 20, (S)-(3-Methylamino-pyrrolidin-1-yl)-(5-methyl-1H-indol-2-yl)-methanone] | > 10000 nM |
| CN[C@@H]1CCN(C(=O)c2cc3cc(C)ccc3[nH]2)C1 [Example 21, (R)-(3-Methylamino-pyrrolidin-1-yl)-(5-methyl-1H-indol-2-yl)-methanone] | 280 nM |
| CN[C@H]1CCN(C(=O)c2cc3c(F)cc(F)cc3[nH]2)C1 [Example 22, (S)-(4,6-Difluoro-1H-indol-2-yl)-(3-methylamino-pyrrolidin-1-yl)-methanone] | > 5000 nM |
| CN[C@@H]1CCN(C(=O)c2cc3c(F)cc(F)cc3[nH]2)C1 [Example 23, (R)-(4,6-Difluoro-1H-indol-2-yl)-(3-methylamino-pyrrolidin-1-yl)-methanone] | 680 nM |
| NC1CCN(C(=O)c2cc3cc(Cl)ccc3[nH]2)C1 (centres unmarked) [Example 24, (3-Amino-pyrrolidin-1-yl)-(5-chloro-1H-indol-2-yl)-methanone hydrochloride salt] | 190 nM |
| CN(C)C1CCN(C(=O)c2cc3cc(Cl)ccc3[nH]2)C1 (centres unmarked) [Example 25, (5-Chloro-1H-indol-2-yl)-(3-dimethylamino-pyrrolidin-1-yl)-methanone] | 1160 nM |
| CN(C)C1CCN(C(=O)c2cc3ccccc3[nH]2)C1 (centres unmarked) [Example 26, (3-Dimethylamino-pyrrolidin-1-yl)-(1H-indol-2-yl)-methanone] | 9000 nM |
| CNC1CCN(C(=O)c2nc3ccccc3[nH]2)C1 (centres unmarked) [Example 30, (1H-Benzoimidazol-2-yl)-(3-methylamino-pyrrolidin-1-yl)-methanone hydrochloride salt] | 2000 nM |
| CN(C)C1CCN(C(=O)c2nc3ccccc3[nH]2)C1 (centres unmarked) [Example 31, (1H-Benzoimidazol-2-yl)-(3-dimethylamino-pyrrolidin-1-yl)-methanone] | 8200 nM |
